US8013169B2, “Naphthylmethylimidizoles as therapeutic agents” (Allergan, Inc, priority 2007, dated 2011)

How the values were obtained:
Alpha 1A = molecular target: T1, Alpha 1A (Homo sapiens, UniProt P35348); assay: RSAT assay, Alpha 1A; assay type: cell-based; settings: for Alpha 1A (IA) intrinsic activity: ratio of maximal effect of drug to maximal effect of standard full agonist
T1 construct: expressed in transfected cells; host or cells: NIH-3T3
T1 sequence (P35348 1-466): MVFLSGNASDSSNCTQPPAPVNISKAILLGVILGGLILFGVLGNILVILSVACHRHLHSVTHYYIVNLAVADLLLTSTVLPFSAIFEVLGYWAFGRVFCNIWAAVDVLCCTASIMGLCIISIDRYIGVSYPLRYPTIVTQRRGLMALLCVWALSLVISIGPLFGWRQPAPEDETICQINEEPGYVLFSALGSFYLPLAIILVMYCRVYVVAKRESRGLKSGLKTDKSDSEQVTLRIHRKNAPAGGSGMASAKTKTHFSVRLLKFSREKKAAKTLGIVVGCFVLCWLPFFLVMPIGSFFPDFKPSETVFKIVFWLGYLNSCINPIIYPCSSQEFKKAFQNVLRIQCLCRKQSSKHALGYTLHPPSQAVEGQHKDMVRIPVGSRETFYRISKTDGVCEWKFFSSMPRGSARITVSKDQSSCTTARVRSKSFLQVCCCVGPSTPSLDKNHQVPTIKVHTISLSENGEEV
Description: (§1) The RSAT assay measures a receptor-mediated loss of contact inhibition that results in selective proliferation of receptor-containing cells in a mixed population of confluent cells. The increase in cell number is assessed with an appropriate transfected marker gene such as […]-galactosidase, the activity of which can be easily measured in a 96-well format. Receptors that activate the G protein, Gq, elicit this response. Alpha2 receptors, which normally couple to Gi, activate the RSAT response when coexpressed with a hybrid Gq protein that has a Gi receptor recognition domain, called Gq/i5.
NIH-3T3 cells are plated at a density of 2×10^6 cells in 15 cm dishes and maintained in Dulbecco's modified Eagle's medium supplemented with 10% calf serum. One day later, cells are cotransfected by calcium phosphate precipitation with mammalian expression plasmids encoding p-SV-β-galactosidase (5-10 μg), receptor (1-2 μg) and G protein (1-2 μg). 40 μg salmon sperm DNA may also be included in the transfection mixture. Fresh media is added on the following day and 1-2 days later, cells are harvested and frozen in 50 assay aliquots. Cells are thawed and 100 μl added to 100 μl aliquots of various concentrations of drugs in triplicate in 96-well dishes. Incubations continue 72-96 hr at 37° C. After washing with phosphate-buffered saline, β-galactosidase enzyme activity is determined by adding 200 μl of the chromogenic substrate (consisting of 3.5 mM o-nitrophenyl-β-D-galactopyranoside and 0.5% nonidet P-40 in phosphate buffered saline), incubating overnight at 30° C. and measuring optical density at 420 nm. The absorbance is a measure of enzyme activity, which depends on cell number and reflects a receptor-mediated cell proliferation. The efficacy or intrinsic activity is calculated as a ratio of the maximal effect of the drug to the maximal effect of a standard full agonist for each receptor subtype. Brimonidine, also called UK14304, the chemical structure of which is shown below, is used as the standard agonist for the alpha2A, alpha2B and alpha2C receptors. The EC50 is the concentration at which the drug effect is half of its maximal effect.
EC50 values are nanomolar. NA stands for “not active” at concentrations less than 10 micromolar. IA stands for “intrinsic activity.”

Alpha 2B = molecular target: T2, Alpha 2B (Homo sapiens, UniProt P18089); assay: RSAT assay, Alpha 2B; assay type: cell-based
T2 construct: expressed in transfected cells; host or cells: NIH-3T3
T2 sequence (P18089 1-450): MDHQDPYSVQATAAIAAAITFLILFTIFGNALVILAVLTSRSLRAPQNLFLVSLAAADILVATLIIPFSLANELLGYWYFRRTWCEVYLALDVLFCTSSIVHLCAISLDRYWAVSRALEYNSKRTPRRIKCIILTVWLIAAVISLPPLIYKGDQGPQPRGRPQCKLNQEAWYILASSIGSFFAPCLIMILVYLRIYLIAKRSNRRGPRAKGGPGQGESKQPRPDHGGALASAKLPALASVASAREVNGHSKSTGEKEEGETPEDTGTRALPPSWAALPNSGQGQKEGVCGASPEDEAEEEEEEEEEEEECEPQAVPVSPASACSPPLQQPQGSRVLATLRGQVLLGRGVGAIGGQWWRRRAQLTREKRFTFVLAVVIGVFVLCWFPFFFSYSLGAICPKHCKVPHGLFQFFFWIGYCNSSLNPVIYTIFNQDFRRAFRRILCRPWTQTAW
Description: as §1
NIH-3T3 cells are plated at a density of 2×10^6 cells in 15 cm dishes and maintained in Dulbecco's modified Eagle's medium supplemented with 10% calf serum. […] After washing with phosphate-buffered saline, β-galactosidase enzyme activity is determined by adding 200 μl of the chromogenic substrate (consisting of 3.5 mM o-nitrophenyl-β-D-galactopyranoside and 0.5% nonidet P-40 in phosphate buffered saline), incubating overnight at 30° C. and measuring optical density at 420 nm. The absorbance is a measure of enzyme activity, which depends on cell number and reflects a receptor-mediated cell proliferation. The efficacy or intrinsic activity is calculated as a ratio of the maximal effect of the drug to the maximal effect of a standard full agonist for each receptor subtype. […]

Structure (SMILES)	EC50 (Alpha 1A)	Alpha 1A (IA) intrinsic activity (Alpha 1A)	EC50 (Alpha 2B; RSAT, NIH-3T3 cells coexpressing Gq/i5, NA = not active at concentrations less than 10 micromolar)	Alpha 2B (IA) intrinsic activity (Alpha 2B; ratio of maximal effect of drug to maximal effect of standard full agonist brimonidine)
CNc1ccc(Cc2nc[nH]c2C)c2ccccc12 [Compound 7, N-methyl-4-((5-methyl-1H-imidazol-4-yl)methyl)naphthalen-1-amine]	13 nM	1.2	–	–
Cc1[nH]cnc1Cc1ccc(N)c2ccccc12 [Compound 8, 4-((5-methyl-1H-imidazol-4-yl)methyl)naphthalen-1-amine]	55 nM	1.01	146 nM	0.46
